Source: PubChem BioAssay (NCI)
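1) Cells in 96-well plates. 2) Compound, 48 h, 5 concentrations. 3) Linear interpolation between surrounding doses. 4) Unreached endpoint = highest concentration. TGI denotes the concentration required for complete inhibition of growth.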

Assays:
Assay in all cases: NCI tumour cell line growth inhibition, 48 h
786-0 renal = system: 786-0 renal
A498 renal = system: A498 renal
A549 NSCLC = system: A549 NSCLC
ACHN renal = system: ACHN renal
CAKI-1 renal = system: CAKI-1 renal
CCRF-CEM leukemia = system: CCRF-CEM leukemia
COLO 205 colon = system: COLO 205 colon
DMS 114 small cell lung = system: DMS 114 small cell lung
DMS 273 small cell lung = system: DMS 273 small cell lung
EKVX NSCLC = system: EKVX NSCLC
HCC-2998 colon = system: HCC-2998 colon
HCT-116 colon = system: HCT-116 colon
HCT-15 colon = system: HCT-15 colon
HL-60(TB) leukemia = system: HL-60(TB) leukemia
HOP-18 NSCLC = system: HOP-18 NSCLC
HOP-62 NSCLC = system: HOP-62 NSCLC
HOP-92 NSCLC = system: HOP-92 NSCLC
HT29 colon = system: HT29 colon
IGROV1 ovarian = system: IGROV1 ovarian
K-562 leukemia = system: K-562 leukemia
KM12 colon = system: KM12 colon
KM20L2 colon = system: KM20L2 colon
LOX IMVI melanoma = system: LOX IMVI melanoma
LXFL 529 NSCLC = system: LXFL 529 NSCLC
M14 melanoma = system: M14 melanoma
M19-MEL melanoma = system: M19-MEL melanoma
MALME-3M melanoma = system: MALME-3M melanoma
MOLT-4 leukemia = system: MOLT-4 leukemia
NCI-H226 lung = system: NCI-H226 lung
NCI-H23 lung = system: NCI-H23 lung
NCI-H460 lung = system: NCI-H460 lung
NCI-H522 lung = system: NCI-H522 lung
OVCAR-3 ovarian = system: OVCAR-3 ovarian
OVCAR-4 ovarian = system: OVCAR-4 ovarian
OVCAR-5 ovarian = system: OVCAR-5 ovarian
OVCAR-8 ovarian = system: OVCAR-8 ovarian
RPMI-8226 leukemia = system: RPMI-8226 leukemia
RXF 393 renal = system: RXF 393 renal
RXF-631 renal = system: RXF-631 renal
SF-268 CNS = system: SF-268 CNS
SF-295 CNS = system: SF-295 CNS
SF-539 CNS = system: SF-539 CNS
SK-MEL-2 melanoma = system: SK-MEL-2 melanoma
SK-MEL-28 melanoma = system: SK-MEL-28 melanoma
SK-MEL-5 melanoma = system: SK-MEL-5 melanoma
SK-OV-3 ovarian = system: SK-OV-3 ovarian
SN12C renal = system: SN12C renal
SNB-19 CNS = system: SNB-19 CNS
SNB-75 CNS = system: SNB-75 CNS
SNB-78 CNS = system: SNB-78 CNS
SR leukemia = system: SR leukemia
SW-620 colon = system: SW-620 colon
TK-10 renal = system: TK-10 renal
U251 CNS = system: U251 CNS
UACC-257 melanoma = system: UACC-257 melanoma
UACC-62 melanoma = system: UACC-62 melanoma
UO-31 renal = system: UO-31 renal
DLD-1 colon = system: DLD-1 colon
XF 498 CNS = system: XF 498 CNS

Measured: TGI

COC(=O)C(CC(=O)Nc1ccc(Cl)c(Cl)c1)C(=O)C(=O)Nc1ccc(Cl)c(Cl)c1 (stereo not given)
> 100 µM: 786-0 renal | A498 renal | A549 NSCLC | ACHN renal | CAKI-1 renal | CCRF-CEM leukemia | COLO 205 colon | DMS 114 small cell lung | DMS 273 small cell lung | EKVX NSCLC | HCC-2998 colon | HCT-116 colon | HCT-15 colon | HL-60(TB) leukemia | HOP-18 NSCLC | HOP-62 NSCLC | HOP-92 NSCLC | HT29 colon | IGROV1 ovarian | K-562 leukemia | KM12 colon | KM20L2 colon | LOX IMVI melanoma | LXFL 529 NSCLC | M14 melanoma | M19-MEL melanoma | MALME-3M melanoma | MOLT-4 leukemia | NCI-H226 lung | NCI-H23 lung | NCI-H460 lung | NCI-H522 lung | OVCAR-3 ovarian | OVCAR-4 ovarian | OVCAR-5 ovarian | OVCAR-8 ovarian | RPMI-8226 leukemia | RXF 393 renal | RXF-631 renal | SF-268 CNS | SF-295 CNS | SF-539 CNS | SK-MEL-2 melanoma | SK-MEL-28 melanoma | SK-MEL-5 melanoma | SK-OV-3 ovarian | SN12C renal | SNB-19 CNS | SNB-75 CNS | SNB-78 CNS | SR leukemia | SW-620 colon | TK-10 renal | U251 CNS | UACC-257 melanoma | UACC-62 melanoma | UO-31 renal

N#CC(C#N)=Cc1ccc(CP(=O)(O)O)cc1
> 100 µM: 786-0 renal | A498 renal | A549 NSCLC | ACHN renal | CAKI-1 renal | CCRF-CEM leukemia | COLO 205 colon | DLD-1 colon | DMS 114 small cell lung | DMS 273 small cell lung | EKVX NSCLC | HCC-2998 colon | HCT-116 colon | HCT-15 colon | HL-60(TB) leukemia | HOP-18 NSCLC | HOP-62 NSCLC | HOP-92 NSCLC | HT29 colon | IGROV1 ovarian | K-562 leukemia | KM12 colon | KM20L2 colon | LOX IMVI melanoma | LXFL 529 NSCLC | M14 melanoma | M19-MEL melanoma | MALME-3M melanoma | MOLT-4 leukemia | NCI-H226 lung | NCI-H23 lung | NCI-H460 lung | NCI-H522 lung | OVCAR-3 ovarian | OVCAR-4 ovarian | OVCAR-5 ovarian | OVCAR-8 ovarian | RPMI-8226 leukemia | RXF-631 renal | SF-268 CNS | SF-295 CNS | SF-539 CNS | SK-MEL-2 melanoma | SK-MEL-28 melanoma | SK-MEL-5 melanoma | SK-OV-3 ovarian | SN12C renal | SNB-19 CNS | SNB-78 CNS | SW-620 colon | TK-10 renal | U251 CNS | UACC-257 melanoma | UACC-62 melanoma | UO-31 renal | XF 498 CNS

O=C1CNC(=O)c2[nH]cnc2N1
> 100 µM: 786-0 renal | A498 renal | A549 NSCLC | ACHN renal | CCRF-CEM leukemia | COLO 205 colon | DLD-1 colon | DMS 114 small cell lung | DMS 273 small cell lung | EKVX NSCLC | HCC-2998 colon | HCT-15 colon | HL-60(TB) leukemia | HOP-18 NSCLC | HT29 colon | IGROV1 ovarian | K-562 leukemia | KM12 colon | LOX IMVI melanoma | LXFL 529 NSCLC | M14 melanoma | M19-MEL melanoma | MALME-3M melanoma | MOLT-4 leukemia | NCI-H226 lung | NCI-H23 lung | NCI-H460 lung | OVCAR-3 ovarian | OVCAR-4 ovarian | OVCAR-5 ovarian | OVCAR-8 ovarian | RPMI-8226 leukemia | RXF 393 renal | RXF-631 renal | SF-268 CNS | SF-295 CNS | SF-539 CNS | SK-MEL-28 melanoma | SK-MEL-5 melanoma | SK-OV-3 ovarian | SN12C renal | SNB-19 CNS | SNB-75 CNS | SNB-78 CNS | SR leukemia | SW-620 colon | TK-10 renal | U251 CNS | UACC-62 melanoma | UO-31 renal | XF 498 CNS

C/C(CC(=O)Nc1ccccc1C)=N/NS(=O)(=O)c1ccc(C)cc1
> 100 µM: 786-0 renal | A498 renal | A549 NSCLC | ACHN renal | CCRF-CEM leukemia | COLO 205 colon | DLD-1 colon | DMS 273 small cell lung | EKVX NSCLC | HCC-2998 colon | HCT-116 colon | HL-60(TB) leukemia | HOP-62 NSCLC | HOP-92 NSCLC | HT29 colon | IGROV1 ovarian | K-562 leukemia | KM12 colon | KM20L2 colon | LOX IMVI melanoma | LXFL 529 NSCLC | M14 melanoma | M19-MEL melanoma | MALME-3M melanoma | MOLT-4 leukemia | NCI-H226 lung | NCI-H23 lung | NCI-H460 lung | NCI-H522 lung | OVCAR-3 ovarian | OVCAR-5 ovarian | OVCAR-8 ovarian | RPMI-8226 leukemia | RXF 393 renal | RXF-631 renal | SF-268 CNS | SF-295 CNS | SF-539 CNS | SK-MEL-2 melanoma | SK-MEL-28 melanoma | SK-MEL-5 melanoma | SK-OV-3 ovarian | SNB-75 CNS | SNB-78 CNS | SW-620 colon | TK-10 renal | U251 CNS | UACC-257 melanoma | UACC-62 melanoma | UO-31 renal | XF 498 CNS
